From paper PMC4721923 (PLoS ONE, 2015)
Where two headings read alike, the source gives them in different places.

How the values were obtained:
[1] = test system: NCI-H460 cells; assay: Stability in the presence of cells (HPLC); format: in vitro ADME, human; conditions: incubation period of 10 minutes
Method: The recently reported validated HPLC method was applied.
Samples were measured immediately before the incubation (t = 0 minutes) and after 10 minutes of incubation at 25°C (t = 10 minutes). […] (TIF) Click here for additional data file.

[2] = test system: Capan-1 cells (pancreatic adenocarcinoma); assay: Chemosensitivity assay (crystal violet assay), Capan-1; format: cell-based, human; conditions: 96 hours of incubation, mean ± SEM
Method: (§1) Depending on the characteristics of the cells, two different assays were performed. For adherently growing cells (HaCaT, HT-29, NCI-H460, SK-MEL-3, MG-63, Capan-1), cytotoxic and cytocidal effects were determined in the crystal violet assay, whereas for loosely adherent cells (LNCaP, SK-ES-1) and cells growing in suspension (HEL 92.1.7, Jurkat, U-937) the MTT-assay was used with minor modifications. In brief, 1.5 · 10^3 (HaCaT, HT-29, NCI-H460, SK-MEL-3, MG-63, Capan-1) or 5 · 10^3 (Jurkat, U-937, HEL92.1.7, LNCaP, SK-ES-1) cells per well were seeded into flat-bottom 96-well plates (Sarstedt, Nümbrecht, Germany). All compounds were used as solutions prepared in DMSO and tested at final concentrations (8 replicates per concentration) of 1, 3, 10, 30 and 50 μM. In case of the vehicle control and test compounds, the final DMSO concentration amounted to 0.1%. Absorbance was measured at 580 nm in a 96-well plate reader (GENios pro microplate reader, Tecan, Salzburg, Austria). Effects were quantified as previously described for both assays.

[3] = test system: SK-ES-1 cells (Ewing's sarcoma); assay: Chemosensitivity assay (MTT-assay), SK-ES-1; format: cell-based, human; conditions: 96 hours of incubation, mean ± SEM
Method: as §1

[4] = test system: MG-63 cells (osteosarcoma); assay: Chemosensitivity assay (crystal violet assay), MG-63; format: cell-based, human; conditions: for IC50: 96 hours of incubation, crystal violet assay, mean ± SEM
Method: as §1

[5] = test system: SK-MEL-3 cells (malignant melanoma); assay: Chemosensitivity assay (crystal violet assay), SK-MEL-3; format: cell-based, human; conditions: mean ± SEM
Method: as §1

[6] = test system: HT-29 cells; assay: Quantification of cell-associated compound by HPLC, HT-29; format: cell-based, human; conditions: 30 μM, 10 minutes; for amount of cell-associated compound: mean ± SEM
Method: (§2) Accumulation of bendamustine and selected bendamustine esters by HT-29 and NCI-H460 cells was determined by HPLC. For this purpose, 1.5 · 10^6 cells/well were seeded into 6-well plates (Sarstedt, Nümbrecht, Germany). After two days of cultivation, the cells were incubated in PBS containing 30 μM of 1, 2, 4 or 5 and 200 μM of umbelliferone as internal standard at 37°C for 10 minutes. After removing the medium, the cells were washed three times with PBS. Untreated cells were detached with trypsin/EDTA and counted. The treated cells were harvested by adding 200 μL of ice-cold perchloric acid (1 M) and scraping. Subsequently, the samples were vortexed and sonicated (Branson 3200 ultrasonic cleaner; Branson, Danbury, USA) for 10 minutes. After 5 minutes of centrifugation (13000 g, 4°C), the supernatants were filtered (0.2 μm Phenex; Phenomenex, Aschaffenburg, Germany) and directly analyzed by HPLC with fluorescence detection according to a recently reported validated procedure. The normalization of the measured concentration to the cell count allowed for a calculation of the cell-associated amount of the respective test compound. Additionally, the ratio of cell-associated substance compared to the applied concentration (30 μM) was calculated based on an average cell volume of 3 pL.

[7] = test system: HEL 92.1.7 cells (erythroleukemia); assay: Chemosensitivity assay (MTT-assay), HEL 92.1.7; format: cell-based, human; conditions: 96 hours of incubation, mean ± SEM
Method: as §1

[8] = test system: p53 in NCI-H460 cells; assay: p53 expression by immunoblotting, NCI-H460; format: cell-based, human; conditions: NCI-H460 nuclear extracts, 24 hours
Method: (§3) The expression of the tumor suppressor p53 by NCI-H460 and HT-29 cells was determined after incubating the cells with compounds 1, 2, 4 and 5 at different concentrations for 24 hours. The cells (from a 10-cm culture dish, 70% confluency) were washed twice with PBS and harvested by scraping after addition of ice-cold buffer A (10 mM HEPES pH = 7.9, 10 mM KCl, 0.1 mM EDTA, 0.1 mM EGTA, protease inhibitor mix (Sigma-Aldrich)). After adding Nonidet P-40 (NP-40) (Sigma, Taufkirchen, Germany) to a final concentration of 1%, the cell suspensions were vortexed and subsequently centrifuged at 13000 g and 4°C for 30 seconds. The pellets were re-suspended in buffer B (buffer A + 400 mM NaCl, 1% NP-40) and gently agitated using a Sarmix M2000 (Sarstedt, Nümbrecht, Germany) at 4°C for 15 min, followed by centrifugation (13000 g, 4°C, 5 min; Microfuge; Eppendorf, Hamburg, Germany). The concentration of soluble protein was determined according to Bradford using the Bio-Rad Protein Assay (Bio-Rad Laboratories, Munich, Germany).
(§4) An amount of 30 μg total protein of each sample and 8 μL of a biotinylated molecular weight standard (1:6 dilution) (Cell Signaling, Danvers, MA, USA) was separated by SDS-PAGE (12% gel) and afterwards electroblotted (150 V, 30 min) to nitrocellulose membrane (Peqlab, Erlangen, Germany). To prevent unspecific binding, the membranes were treated with milk powder (5% (m/v) in buffer (150 mM NaCl, 20 mM Tris, 0.1% Tween 20, pH = 7.6)) before incubation with anti-p53 rabbit mAb (dilution 1:1000) (Cell Signaling) and anti-histone H2B Ab (dilution 1:1000) (Cell Signaling) as loading control at 4°C for 14 hours. The primary antibodies and the “protein ladder” were simultaneously detected with a horseradish peroxidase (HRP)-coupled donkey anti rabbit mAb (dilution 1:1000) (Santa Cruz biotechnology, Heidelberg, Germany) or the anti-biotin HRP-coupled antibody (dilution 1:5000) (Cell Signaling), respectively. The incubation with the secondary antibody was performed at room temperature for 1 hour. The bands were detected by […] using the Pierce ECL Western Blotting Substrate (Thermo Scientific, Dreieich, Germany). After exposure, the x-ray film (Amersham Hyperfilm ECL, GE Healthcare, München, Germany) was developed (CAWOMAT 2000 IR, CAWO, Schrobenhausen, Germany) and analyzed using a GS-710 imaging densitometer and Quantity One V. 4 software (Bio-Rad Laboratories, Munich, Germany).

[9] = test system: U-937 cells (histiocytic lymphoma); assay: Chemosensitivity assay (MTT-assay), U-937; format: cell-based, human; conditions: 96 hours of incubation, mean ± SEM
Method: as §1

[10] = test system: NCI-H460 cells; assay: Quantification of cell-associated compound by HPLC, NCI-H460; format: cell-based, human; conditions: 30 μM, 10 minutes, mean ± SEM
Method: as §2

[11] = test system: HT-29 cells (colorectal adenocarcinoma); assay: Chemosensitivity assay (crystal violet assay), HT-29; format: cell-based, human; conditions: 96 hours of incubation, mean ± SEM
Method: as §1

[12] = test system: Jurkat cells (acute T-cell leukemia); assay: Chemosensitivity assay (MTT-assay), Jurkat; format: cell-based, human; conditions: 96 hours of incubation, mean ± SEM
Method: as §1

[13] = test system: p53 in HT-29 cells; assay: p53 expression by immunoblotting, HT-29; format: cell-based, human; conditions: HT-29 nuclear extracts; 10 μM; 24 hours
Method: as §3, §4

[14] = Homo sapiens, SK-MEL3, 96 hours of incubation, read-out: IC50

| SMILES | stability in the presence of cells [1] | IC50 ([2]; Homo sapiens, CAPAN-1, 96 h) [nM] | IC50 [3] [nM] | IC50 ([3]; Homo sapiens, SK-ES1, 96 h) [nM] | IC50 ([4]; Homo sapiens, MG-63, 96 h) [µM] | IC50 [5, 14] [µM] | amount of cell-associated compound [6] [nmol/10^6 cells] | IC50 ([7]; Homo sapiens, HEL 92.1.7, 96 h) [nM] | IC50 ([9]; Homo sapiens, U-937, 96 h) [µM] | amount of cell-associated compound [10] [nmol/10^6 cells] | IC50 ([11]; Homo sapiens, read-out: IC50) [µM] | IC50 ([12]; Homo sapiens, 96 h) [µM] | p53 expression [13] | p53 expression ([8]; 10 μM) | further results |
| --- | --- | --- | --- | --- | --- | --- | --- | --- | --- | --- | --- | --- | --- | --- | --- |
| Cn1c(CCCC(=O)O)nc2cc(N(CCCl)CCCl)ccc21 [Compound 1, bendamustine, reference compound] | Other decomposition products were not detected | < 20000 | 9600 ± 300 | ~10000 | ~56 | > 100 | 0.07 ± 0.011 | > 80000 | > 80 | 0.03 ± 0.001 | > 100 | 43 | slight induction |  | IC50 [2]: 18900 ± 4500 nM; IC50 [4]: 55.8 ± 1.9 µM; concentrations with cytocidal drug effects ([4]; kinetic assay, long-term exposure (S6 Fig)): above 30 μM; IC50 ([5]; 96 hours of incubation): ineffective; IC50 [7]: 86200 ± 2600 nM; p53 expression ([8]; 100 μM): weakly induced; IC50 [9]: 83.4 ± 8.5 µM; IC50 [11]: ineffective; IC50 [12]: 43.4 ± 4.8 µM |
| COC(=O)CCCc1nc2cc(N(CCCl)CCCl)ccc2n1C [Compound 2] | Other decomposition products were not detected | 600 ± 40 | 180 ± 20 | ~200 | 1.9 ± 0.1 | 13.8 ± 0.4 | 2.05 ± 0.39 | 2500 ± 100 | 1.8 ± 0.1 | 0.28 ± 0.06 | 9.4 ± 0.4 | 3.1 ± 0.1 | increased the expression of p53 | significantly induced |  |
| Cn1c(CCCC(=O)OCCN2CCOCC2)nc2cc(N(CCCl)CCCl)ccc21 [Compound 4] | Other decomposition products were not detected | 1400 ± 10 | 910 ± 80 | 900 | 3.5 ± 0.1 | 20.9 ± 0.9 | 1.59 ± 0.23 | 2400 ± 1000 | 3.2 ± 0.96 | 0.59 ± 0.04 | 9 ± 0.5 | 3.2 ± 1 | increased the expression of p53 | significantly induced |  |
| Cn1c(CCCC(=O)OCCN2CCCC2)nc2cc(N(CCCl)CCCl)ccc21 [Compound 5] | Other decomposition products were not detected | 120 ± 20 |  | 90 ± 10 | 0.38 ± 0.06 | 0.83 ± 0.18 | 5.01 ± 0.34 | 1000 ± 10 | 0.83 ± 0.19 | 1.89 ± 0.14 | 1.1 ± 0.1 | 0.61 ± 0.02 | increased the expression of p53 | significantly induced | cellular enrichment relative to bendamustine [6]: approximately 70 fold |
